Experimental data as given in PMC7044277 (Nature Communications, 2020).
Where “and” joins values, the source holds several entries; their conditions need not be identical. Identical values can stand only once.

Experiments:
Assay type in all cases: cell-based
[1] = target: T1, 320 non-olfactory GPCRs (Homo sapiens, UniProt Q96P66)
T1 construct: expressed in transfected cells; host or cells: HTLA cells

[2] = target: T2, 320 non-olfactory GPCRs (Homo sapiens, UniProt Q8IZF3)
T2 construct: expressed in transfected cells; host or cells: HTLA cells

[3] = target: T3, 320 non-olfactory GPCRs (Homo sapiens, UniProt Q9HB89); conditions: receptor NMUR1; replicate values, Fig_4g
T3 construct: expressed in transfected cells; host or cells: HTLA cells

[4] = target: 320 non-olfactory GPCRs (Homo sapiens, UniProt P47211)
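For Fold of Basal in this document: compound tested at 1 µM final concentration.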
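For GPCRome agonism screen response in this document: fold over basal response of each receptor without drug.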

T1 sequence (Q96P66 whole entry): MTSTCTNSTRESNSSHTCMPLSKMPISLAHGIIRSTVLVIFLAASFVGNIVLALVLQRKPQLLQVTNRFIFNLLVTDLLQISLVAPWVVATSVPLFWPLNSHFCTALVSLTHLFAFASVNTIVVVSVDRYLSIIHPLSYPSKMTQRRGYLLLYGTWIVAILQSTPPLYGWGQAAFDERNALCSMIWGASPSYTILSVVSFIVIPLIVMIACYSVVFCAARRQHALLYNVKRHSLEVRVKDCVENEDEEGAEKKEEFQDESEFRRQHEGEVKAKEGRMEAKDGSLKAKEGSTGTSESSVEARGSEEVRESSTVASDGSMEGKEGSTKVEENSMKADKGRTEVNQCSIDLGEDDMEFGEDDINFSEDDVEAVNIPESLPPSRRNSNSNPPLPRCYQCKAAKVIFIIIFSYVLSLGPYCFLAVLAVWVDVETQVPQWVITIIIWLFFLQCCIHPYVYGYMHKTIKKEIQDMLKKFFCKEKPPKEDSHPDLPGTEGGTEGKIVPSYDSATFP
T3 sequence (Q9HB89 whole entry): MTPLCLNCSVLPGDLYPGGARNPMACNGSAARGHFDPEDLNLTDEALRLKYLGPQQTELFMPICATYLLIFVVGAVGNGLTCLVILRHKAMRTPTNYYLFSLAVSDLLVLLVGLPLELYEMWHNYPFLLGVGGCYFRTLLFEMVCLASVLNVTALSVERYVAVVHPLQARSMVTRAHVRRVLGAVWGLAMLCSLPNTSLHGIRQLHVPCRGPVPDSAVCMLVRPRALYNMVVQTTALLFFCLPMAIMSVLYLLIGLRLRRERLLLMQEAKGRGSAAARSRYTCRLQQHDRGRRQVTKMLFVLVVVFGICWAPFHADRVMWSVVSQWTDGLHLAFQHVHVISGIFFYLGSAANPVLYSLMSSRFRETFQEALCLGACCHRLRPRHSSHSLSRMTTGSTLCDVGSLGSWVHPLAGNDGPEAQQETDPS
Sequence of 320 non-olfactory GPCRs (Homo sapiens, UniProt P47211) (P47211 whole entry): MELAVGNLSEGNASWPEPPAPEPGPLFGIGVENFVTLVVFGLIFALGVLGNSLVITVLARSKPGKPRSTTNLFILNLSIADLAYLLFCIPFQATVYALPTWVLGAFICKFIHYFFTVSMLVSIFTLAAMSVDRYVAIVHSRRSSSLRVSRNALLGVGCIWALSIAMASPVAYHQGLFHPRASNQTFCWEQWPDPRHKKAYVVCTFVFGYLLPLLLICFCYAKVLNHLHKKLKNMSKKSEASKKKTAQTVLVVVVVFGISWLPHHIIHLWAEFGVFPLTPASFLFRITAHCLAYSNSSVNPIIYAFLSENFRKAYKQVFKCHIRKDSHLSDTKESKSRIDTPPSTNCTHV
T2 sequence (Q8IZF3 22-695): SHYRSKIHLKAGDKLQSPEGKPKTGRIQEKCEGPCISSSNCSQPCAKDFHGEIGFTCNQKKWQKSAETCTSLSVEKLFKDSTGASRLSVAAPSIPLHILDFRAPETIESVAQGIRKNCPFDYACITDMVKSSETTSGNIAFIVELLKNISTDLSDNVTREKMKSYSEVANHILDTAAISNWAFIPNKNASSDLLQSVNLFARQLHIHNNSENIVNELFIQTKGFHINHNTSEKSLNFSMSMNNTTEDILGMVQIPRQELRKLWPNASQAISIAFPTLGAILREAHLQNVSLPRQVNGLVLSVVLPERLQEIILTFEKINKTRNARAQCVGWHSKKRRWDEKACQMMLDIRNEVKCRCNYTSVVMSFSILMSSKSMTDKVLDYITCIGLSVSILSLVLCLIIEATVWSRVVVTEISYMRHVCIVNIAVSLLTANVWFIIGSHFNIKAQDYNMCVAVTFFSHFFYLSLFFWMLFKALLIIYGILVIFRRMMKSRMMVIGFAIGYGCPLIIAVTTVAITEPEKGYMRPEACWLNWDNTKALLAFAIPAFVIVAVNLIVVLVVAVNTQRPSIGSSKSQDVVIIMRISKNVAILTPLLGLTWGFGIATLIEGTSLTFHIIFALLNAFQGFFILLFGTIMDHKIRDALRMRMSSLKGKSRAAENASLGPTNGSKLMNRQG

`CCOc1cccc2cc(C(C)NCC3(O)CCCCC3)oc12` (stereo not shown) [O4LE6] was tested, and the “Fold of Basal” value [1] was 1.216 and 1.226 and 0.7864 and 1.078, the “Fold of Basal” value [2] was 1.314 and 0.8065 and 0.6945 and the “GPCRome agonism screen response” value [3] was 1.001 and 1.011 and 0.9191 and 1.865. For the same compound, the “Fold of Basal” value [4] was 0.9505 and 0.7559 and 1.028 and 0.7017.
